Values joined by “and” are separate entries in the source; they are usually repeats but may differ in a detail not shown here. Identical values can stand only once.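 Following 48 hours of exposure in 96-well plates, responses at five concentrations were used to interpolate endpoints linearly. GI50 is the concentration that inhibits growth by half. At the TGI there is no net growth.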
Columns and labels:
Experiment in all cases: NCI-60 cell line screen, 48 h
SNB-75 CNS = tested on: SNB-75 CNS
SF-539 CNS = tested on: SF-539 CNS
HOP-62 NSCLC = tested on: HOP-62 NSCLC
K-562 leukemia = tested on: K-562 leukemia
U251 CNS = tested on: U251 CNS
HS 578T breast = tested on: HS 578T breast
HCT-15 colon = tested on: HCT-15 colon
UACC-62 melanoma = tested on: UACC-62 melanoma
RXF 393 renal = tested on: RXF 393 renal
SK-MEL-2 melanoma = tested on: SK-MEL-2 melanoma

SMILES: CNCCOc1nc2c3cnccc3cc(-c3cc(OC)c(OC)c(OC)c3)c2c2ccncc12
- GI50 (SNB-75 CNS): 30.4 nM
- TGI (SNB-75 CNS): 162 nM
- GI50 (SF-539 CNS): 43.8 nM
- TGI (SF-539 CNS): 225 nM
- GI50 (HOP-62 NSCLC): 22.4 nM
- TGI (HOP-62 NSCLC): 166 nM
- GI50 (K-562 leukemia): 29.4 nM
- TGI (K-562 leukemia): 10100 nM
- GI50 (U251 CNS): 24.1 nM
- TGI (U251 CNS): 523 nM
- GI50 (HS 578T breast): 139 nM
- TGI (HS 578T breast): 747 nM
- GI50 (HCT-15 colon): 46.7 nM
- TGI (HCT-15 colon): 2190 nM
- GI50 (UACC-62 melanoma): 27 nM
- TGI (UACC-62 melanoma): 169 nM
- GI50 (RXF 393 renal): 46.9 nM
- TGI (RXF 393 renal): 188 nM
- GI50 (SK-MEL-2 melanoma): 264 nM
- TGI (SK-MEL-2 melanoma): 683 nM

SMILES: O=C(NO)c1cnc(N2CCN(S(=O)(=O)c3ccc4ccccc4c3)CC2)nc1
- GI50 (SNB-75 CNS): 26.5 nM
- TGI (SNB-75 CNS): 10800 nM
- GI50 (SF-539 CNS): 76.2 nM
- TGI (SF-539 CNS): 2800 nM
- GI50 (HOP-62 NSCLC): 104 nM
- TGI (HOP-62 NSCLC): 5490 nM
- GI50 (K-562 leukemia): 36.3 nM
- TGI (K-562 leukemia): > 40900 nM
- GI50 (U251 CNS): 65.4 nM
- TGI (U251 CNS): 298 nM
- GI50 (HS 578T breast): 101 nM
- TGI (HS 578T breast): > 47300 nM
- GI50 (HCT-15 colon): 69 nM
- TGI (HCT-15 colon): 15600 nM
- GI50 (UACC-62 melanoma): 37.4 nM
- TGI (UACC-62 melanoma): 220 nM
- GI50 (RXF 393 renal): 39.9 nM
- TGI (RXF 393 renal): 208 nM
- GI50 (SK-MEL-2 melanoma): 34.5 nM
- TGI (SK-MEL-2 melanoma): 214 nM

SMILES: NC(=O)NC(=O)C1CCCCC1C(=O)O (centres undefined)
- TGI (SNB-75 CNS): > 100000 nM
- TGI (SF-539 CNS): > 100000 nM
- TGI (HOP-62 NSCLC): > 100000 nM
- TGI (K-562 leukemia): > 100000 nM
- TGI (U251 CNS): > 100000 nM
- TGI (HS 578T breast): > 100000 nM
- TGI (HCT-15 colon): > 100000 nM
- TGI (UACC-62 melanoma): > 100000 nM
- TGI (RXF 393 renal): > 100000 nM
- TGI (SK-MEL-2 melanoma): > 100000 nM

SMILES: C[C@@H]1CN2[C@H]3[C@@H]1CC[C@]31CCC(=O)O[C@]1(C)[C@@H]1CC[C@H]3CCC=C3[C@@H]12
- GI50 (SNB-75 CNS): 35300 nM
- TGI (SNB-75 CNS): > 70000 nM
- GI50 (SF-539 CNS): > 70000 nM
- TGI (SF-539 CNS): > 70000 nM
- GI50 (HOP-62 NSCLC): > 70000 nM
- TGI (HOP-62 NSCLC): > 70000 nM
- GI50 (K-562 leukemia): > 70000 nM
- TGI (K-562 leukemia): > 70000 nM
- GI50 (U251 CNS): > 70000 nM
- TGI (U251 CNS): > 70000 nM
- GI50 (HS 578T breast): > 70000 nM
- TGI (HS 578T breast): > 70000 nM
- GI50 (HCT-15 colon): > 70000 nM
- TGI (HCT-15 colon): > 70000 nM
- GI50 (UACC-62 melanoma): > 70000 nM
- TGI (UACC-62 melanoma): > 70000 nM
- GI50 (RXF 393 renal): > 70000 nM
- TGI (RXF 393 renal): > 70000 nM
- GI50 (SK-MEL-2 melanoma): > 70000 nM
- TGI (SK-MEL-2 melanoma): > 70000 nM

SMILES: CCCCCCC1N=C(N)N=C(N)N1c1ccc(Cl)cc1 (centres undefined)
- GI50 (SNB-75 CNS): 6310 nM
- TGI (SNB-75 CNS): 33500 nM
- GI50 (SF-539 CNS): 4160 nM
- TGI (SF-539 CNS): 18000 nM
- GI50 (HOP-62 NSCLC): 6930 nM
- TGI (HOP-62 NSCLC): 39600 nM
- GI50 (K-562 leukemia): 5550 nM
- TGI (K-562 leukemia): > 100000 nM
- GI50 (U251 CNS): 2530 nM
- TGI (U251 CNS): 14700 nM
- GI50 (HS 578T breast): 2350 nM
- TGI (HS 578T breast): 18200 nM
- GI50 (HCT-15 colon): > 100000 nM
- TGI (HCT-15 colon): > 100000 nM
- GI50 (UACC-62 melanoma): 8550 nM
- TGI (UACC-62 melanoma): 37600 nM
- GI50 (RXF 393 renal): 10600 nM
- TGI (RXF 393 renal): 38600 nM
- GI50 (SK-MEL-2 melanoma): 11700 nM
- TGI (SK-MEL-2 melanoma): 26300 nM

SMILES: CC(=O)OCC(=O)C1(O)C(C)CC2C3C=C(C)C4=Cc5c(cnn5-c5ccccc5)CC4(C)C3C(O)CC21C (centres undefined)
- GI50 (SNB-75 CNS): 1890 nM
- TGI (SNB-75 CNS): 5920 nM
- GI50 (SF-539 CNS): 439 nM
- TGI (SF-539 CNS): 2410 nM
- GI50 (HOP-62 NSCLC): 1350 nM
- TGI (HOP-62 NSCLC): 3520 nM
- GI50 (K-562 leukemia): 500 nM
- TGI (K-562 leukemia): > 100000 nM
- GI50 (U251 CNS): 1000 nM
- TGI (U251 CNS): 3770 nM
- GI50 (HS 578T breast): 1170 nM
- TGI (HS 578T breast): 4750 nM
- GI50 (HCT-15 colon): 1150 nM
- TGI (HCT-15 colon): 2540 nM
- GI50 (UACC-62 melanoma): 1770 nM
- TGI (UACC-62 melanoma): 3800 nM
- GI50 (RXF 393 renal): 781 nM
- TGI (RXF 393 renal): 2390 nM
- GI50 (SK-MEL-2 melanoma): 1660 nM
- TGI (SK-MEL-2 melanoma): 3850 nM

SMILES: CC[C@H](C)[C@H](NC(=O)C12CC(NC(C)=O)(C1)C2)C(=O)N(C)[C@H](C[C@@H](OC(C)=O)c1nc(C(=O)N[C@@H](Cc2ccccc2)C[C@H](C)C(=O)OC)cs1)C(C)C
- GI50 (SNB-75 CNS): 123 nM
- TGI (SNB-75 CNS): > 16700 nM
- GI50 (SF-539 CNS): 438 nM
- TGI (SF-539 CNS): 1150 nM
- GI50 (HOP-62 NSCLC): 473 nM
- TGI (HOP-62 NSCLC): > 10400 nM
- GI50 (K-562 leukemia): 101 nM
- TGI (K-562 leukemia): > 16700 nM
- GI50 (U251 CNS): 433 nM
- TGI (U251 CNS): > 16700 nM
- GI50 (HS 578T breast): 505 nM
- TGI (HS 578T breast): > 9510 nM
- GI50 (HCT-15 colon): 1090 nM
- TGI (HCT-15 colon): > 16700 nM
- GI50 (UACC-62 melanoma): 73.5 nM
- TGI (UACC-62 melanoma): > 16700 nM
- GI50 (RXF 393 renal): 359 nM
- TGI (RXF 393 renal): > 16700 nM
- GI50 (SK-MEL-2 melanoma): 108 nM
- TGI (SK-MEL-2 melanoma): > 16700 nM

SMILES: COc1ccc(NC(=O)O[C@H]2[C@H](O[C@H]3[C@@H](O)COC(O[C@H]4C[C@H]5[C@@H]6CC=C7C[C@@H](O)CC[C@]7(C)[C@H]6CC[C@]5(C)[C@H]4[C@H](C)C(=O)CCC(C)C)[C@@H]3OC(C)=O)OC[C@@H](O)[C@@H]2O)cc1 (some centres undefined)
- GI50 (SNB-75 CNS): < 10 nM
- TGI (SNB-75 CNS): 6880 nM
- GI50 (SF-539 CNS): < 10 nM
- TGI (SF-539 CNS): 12.4 nM
- GI50 (HOP-62 NSCLC): < 10 nM
- TGI (HOP-62 NSCLC): 1020 nM
- GI50 (K-562 leukemia): < 10 nM
- TGI (K-562 leukemia): 19600 nM
- GI50 (U251 CNS): < 10 nM
- TGI (U251 CNS): 12200 nM
- GI50 (HS 578T breast): < 10 nM
- TGI (HS 578T breast): 11.6 nM
- GI50 (HCT-15 colon): 73.5 nM
- TGI (HCT-15 colon): 1230 nM
- GI50 (UACC-62 melanoma): < 10 nM
- TGI (UACC-62 melanoma): < 10 nM
- GI50 (RXF 393 renal): < 10 nM
- TGI (RXF 393 renal): < 10 nM
- GI50 (SK-MEL-2 melanoma): < 10 nM
- TGI (SK-MEL-2 melanoma): 192 nM

SMILES: CC[C@@]1(OC(=O)CN)C(=O)OCc2c1cc1n(c2=O)Cc2cc3c(N)c4c(cc3nc2-1)OCO4
- GI50 (SNB-75 CNS): 0.442 nM
- TGI (SNB-75 CNS): 824 nM
- GI50 (SF-539 CNS): < 0.1 nM
- TGI (SF-539 CNS): 0.945 nM
- GI50 (HOP-62 NSCLC): < 0.1 nM
- TGI (HOP-62 NSCLC): 205 nM and 250 nM
- GI50 (K-562 leukemia): 2.54 nM
- TGI (K-562 leukemia): 508 nM
- GI50 (U251 CNS): < 0.1 nM
- TGI (U251 CNS): 18.6 nM and 57.1 nM
- GI50 (HS 578T breast): 232 nM
- GI50 (HCT-15 colon): 40.9 nM and 147 nM
- TGI (HCT-15 colon): > 100000 nM
- GI50 (UACC-62 melanoma): < 0.1 nM
- TGI (UACC-62 melanoma): 24.6 nM
- GI50 (RXF 393 renal): 4.66 nM
- TGI (RXF 393 renal): 158 nM
- GI50 (SK-MEL-2 melanoma): 22.6 nM
- TGI (SK-MEL-2 melanoma): 327 nM

SMILES: O=C1c2ccccc2C(=O)c2c(NC(=O)c3ccc4c5c(ncnc35)-c3ccccc3C4=O)cccc21
- TGI (SNB-75 CNS): 58500 nM
- TGI (SF-539 CNS): > 100000 nM
- TGI (HOP-62 NSCLC): 42700 nM
- TGI (K-562 leukemia): > 100000 nM
- TGI (U251 CNS): > 100000 nM
- TGI (HS 578T breast): > 100000 nM
- TGI (HCT-15 colon): > 100000 nM
- TGI (UACC-62 melanoma): > 100000 nM
- TGI (RXF 393 renal): 49100 nM
- TGI (SK-MEL-2 melanoma): > 100000 nM
